ChEMBL document CHEMBL1201862, “PubChem BioAssay data set” (2004)
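Cells were grown in 96-well plates and exposed to each compound for 48 hours at five concentrations; endpoints were interpolated linearly between bracketing concentrations, or set to the highest concentration if not reached. GI50 is the concentration that inhibits growth by half.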 Activity calls are given as the source filed them. Rule as the data show it: active = GI50 up to about 1.1 µM and inactive = higher.

Experiments:
Assay in all cases: NCI-60 cell line screen, 48 h
[1] = system: SF-268
[2] = system: SNB-19
[3] = system: SF-539
[4] = system: OVCAR-3
[5] = system: SR
[6] = system: OVCAR-4
[7] = system: MCF7
[8] = system: Malme-3M
[9] = system: HCT-15
[10] = system: SNB-75
[11] = system: K562
[12] = system: SK-MEL-2
[13] = system: Hs-578T
[14] = system: HOP-62
[15] = system: NCI/ADR-RES
[16] = system: HOP-92
[17] = system: SW-620
[18] = system: IGROV-1
[19] = system: LOX IMVI
[20] = system: UO-31
[21] = system: U-251
[22] = system: NCI-H226
[23] = system: M14
[24] = system: MDA-MB-435
[25] = system: ACHN
[26] = system: CAKI-1
[27] = system: OVCAR-5
[28] = system: NCI-H460
[29] = system: BT-549
[30] = system: KM12
[31] = system: COLO 205
[32] = system: UACC-257
[33] = system: HCT-116
[34] = system: OVCAR-8
[35] = system: 786-0
[36] = system: CCRF-CEM
[37] = system: TK-10
[38] = system: RPMI-8226
[39] = system: PC-3
[40] = system: T47D
[41] = system: EKVX
[42] = system: HT-29
[43] = system: SK-MEL-5
[44] = system: A549
[45] = system: MDA-N
[46] = system: SK-OV-3
[47] = system: UACC-62
[48] = system: NCI-H522
[49] = system: NCI-H23
[50] = system: MDA-MB-231
[51] = system: SF-295
[52] = system: RXF 393
[53] = system: A498

In the case of `O=C(O)c1nc2cc(C(F)(F)F)ccc2nc1Nc1ccc(Cl)c(Cl)c1`, the GI50 [1] is reported as 16.8 µM (inactive), the GI50 [2] is reported as 8.95 µM (inactive) and the GI50 [3] is reported as 11.4 µM (inactive). For the same compound, the GI50 [4] was 13.5 µM (inactive), the GI50 [5] was 21.6 µM (inactive) and the GI50 [6] was 21.2 µM (inactive). For the same compound, the GI50 [7] was 23.8 µM (inactive), the GI50 [8] was 20.1 µM (inactive) and the GI50 [9] was 12.3 µM. The GI50 [10] was 20.5 µM (inactive), the GI50 [11] was 14.6 µM (inactive) and the GI50 [12] was 2.96 µM (inactive). For the same compound, the GI50 [13] was 14 µM (inactive), the GI50 [14] was 14.5 µM (inactive) and the GI50 [15] was 10.5 µM (inactive). For the same compound, the GI50 [16] was 11 µM (inactive), the GI50 [17] was 10.8 µM (inactive) and the GI50 [18] was 18 µM (inactive). The GI50 [19] was 17.3 µM (inactive), the GI50 [20] was 14.4 µM (inactive) and the GI50 [21] was 10.3 µM (inactive). The GI50 [22] was 15.8 µM (inactive), the GI50 [23] was 13 µM (inactive) and the GI50 [24] was 5.12 µM (inactive). The GI50 [25] was 11.6 µM (inactive), the GI50 [26] was 28.4 µM (inactive) and the GI50 [27] was 17.7 µM (inactive). The GI50 [28] was 13.5 µM (inactive), the GI50 [29] was 11.1 µM (inactive) and the GI50 [30] was 12.9 µM (inactive). For the same compound, the GI50 [31] was 16.6 µM (inactive), the GI50 [32] was 20.7 µM (inactive) and the GI50 [33] was 9.23 µM (inactive). The GI50 [34] was 12.6 µM (inactive), the GI50 [35] was 15.9 µM (inactive) and the GI50 [36] was > 10 µM (inactive). For the same compound, the GI50 [37] was 14.2 µM (inactive), the GI50 [38] was 6.78 µM (inactive) and the GI50 [39] was 4.3 µM (inactive). The GI50 [40] was 14.1 µM (inactive), the GI50 [41] was 17.9 µM (inactive) and the GI50 [42] was 15.3 µM (inactive). The GI50 [43] was 17.7 µM (inactive), the GI50 [44] was 8.79 µM (inactive) and the GI50 [45] was 14 µM (inactive). For the same compound, the GI50 [46] was 16.7 µM (inactive), the GI50 [47] was 12.3 µM (inactive) and the GI50 [48] was 15.8 µM (inactive). For the same compound, the GI50 [49] was 14.3 µM (inactive), the GI50 [50] was 20.7 µM (inactive) and the GI50 [51] was 10.3 µM (inactive). The GI50 [52] was 20.9 µM (inactive) and the GI50 [53] was 15.8 µM (inactive).
